This test has as its target T1, EnLOX (Enterovibrio norvegicus, UniProt A0A1I5T4S6).
T1 construct: gene SAMN03084138_03074; E. coli BL21(DE3); Ni-NTA purified
T1 sequence (A0A1I5T4S6 1-726): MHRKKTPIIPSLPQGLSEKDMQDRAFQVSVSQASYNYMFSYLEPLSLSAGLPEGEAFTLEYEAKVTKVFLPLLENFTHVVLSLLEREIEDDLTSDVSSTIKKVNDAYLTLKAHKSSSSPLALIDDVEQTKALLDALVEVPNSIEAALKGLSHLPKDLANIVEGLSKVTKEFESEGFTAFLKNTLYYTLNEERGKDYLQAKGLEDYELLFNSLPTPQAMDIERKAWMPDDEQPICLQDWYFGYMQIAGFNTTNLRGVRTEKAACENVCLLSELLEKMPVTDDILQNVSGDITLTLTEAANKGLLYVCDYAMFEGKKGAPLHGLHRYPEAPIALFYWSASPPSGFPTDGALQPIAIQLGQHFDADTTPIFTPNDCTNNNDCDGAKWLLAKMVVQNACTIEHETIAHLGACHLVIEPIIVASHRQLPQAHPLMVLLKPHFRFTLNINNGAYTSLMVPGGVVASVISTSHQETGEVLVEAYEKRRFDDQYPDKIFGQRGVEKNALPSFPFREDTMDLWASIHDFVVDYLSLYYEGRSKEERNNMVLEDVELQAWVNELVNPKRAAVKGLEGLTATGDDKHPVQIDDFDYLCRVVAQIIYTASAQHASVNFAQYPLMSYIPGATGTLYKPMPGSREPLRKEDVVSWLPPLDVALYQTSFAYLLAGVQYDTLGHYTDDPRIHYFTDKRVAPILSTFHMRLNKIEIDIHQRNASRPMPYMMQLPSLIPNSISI
In words: absorbance at […] nm, Michaelis-Menten nonlinear fit. Format: biochemical. The following applies: 20 mmol L^−1 Tris-HCl, pH 8.0, 50 °C.

By Km is commonly meant the concentration of substrate that gives half-maximal velocity.

For `CC/C=C\C/C=C\C/C=C\CCCCCCCC(=O)O` [ALA, α-linolenic acid], the Michaelis constant (Km) amounted to 2.32 µM.
For `CCCCC/C=C\C/C=C\C/C=C\CCCCC(=O)O` [GLA, γ-linolenic acid], the Michaelis-Menten constant (Km) is 8.79 µM.

(Values after PMC9498203, “Characterization and Preliminary Application of a Novel Lipoxygenase from Enterovibrio norvegicus” (Foods, 2022).)
